Measurements reported in paper PMC5794198, “Inhibitors of Trypanosoma cruzi Sir2 related protein 1 as potential drugs against Chagas disease” (PLoS Neglected Tropical Diseases, 2018).
Entries after “also recorded” stand apart in the source; their conditions may differ.

Tests used:
[1] = tested on: T. cruzi amastigotes; experiment: High-content screening assay on intracellular T. cruzi amastigotes; type: cell-based, Trypanosoma cruzi; conditions: Trypanosoma cruzi, C2C12, 72 h, Y strain in C2C12 host cells, 72 h; read-out: Anti-T. cruzi Activity Amastigotes (EC50 ± SD)
Procedure, shortened: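 C2C12 host cells were infected 24 hr with Y strain tissue culture-derived trypomastigotes, then exposed to compound for 72 hrs. After paraformaldehyde fixation and DAPI staining, high-content imaging segmented host nuclei and parasite kinetoplast DNA. Read-out was the average number of amastigotes per host cell.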

[2] = Gastric stability; type: in vitro ADME
[3] = Snapshot pharmacokinetics in blood after intravenous injection; type: in vivo, BALB/c mice; conditions: 5 mg/kg intravenous
Protocol: The pharmacokinetic profile of BNIPSpd was determined following intravenous injection of 5 mg/kg in BALB/c mice. The blood was collected from tail veins after 0, 5, 15, 30, 45 min, 1, 3, 24, 48 and 72 h of drug administration. Blood concentrations of the drug were analysed by UHPLC- ESI-MS/MS.
Supplementary file pntd.0006180.s006.tif: S5 Fig In vivo efficacy testing of BNIPSpd (9). A) Mice were infected with 10^4 Luc^+ trypomastigotes by intraperitoneal injection. Treatments (BZN, benznidazole at 100 mg/kg/day per os, and BNIPSpd (9) at 5 mg/kg/day by intravenous injection) were initiated 7 days after infection, as well as the respective controls (KP, Kolliphor HS 15 20% per os and DMSO 10% by intravenous injection). […] In the lower panel, bioluminescence signal of whole mice represented in average radiance (photons/sec/cm^2/sr) quantified before and after treatment. […] B) Snapshot Pharmacokinetics of BNIPSpd (9) in BALB/c mice by quantification of BNIPSpd (9) in the blood of mice by UHPLC-MS/MS ESI+ at different time-points after administration of a 5 mg/kg dose by intravenous injection. […] The dashed line represents the value of EC50 for BNIPSpd (9) in the in vitro assay against T. cruzi amastigotes, and the dotted line represents the lower limit of quantification of the technique. […]

[4] = tested on: Hepatocytes; experiment: HCS injury score panel in primary hepatocytes; type: cell-based
Protocol: In vitro assays were also performed in primary cells (hepatocytes and neurons) to evaluate BNIPSpd (9) potential toxicity: (a) host cell nuclei counting after HOECHST staining, (b) viability by measuring the metabolism of WST-8 probe, (c) apoptosis induction through caspase 3/7 activation, (d) evaluation of mitochondrial dysfunction by measuring the membrane potential using TMRM probe, (e) membrane integrity by measuring the extracellular LDH, (f) DNA damage by histone H2AX phosphorylation (exclusively in hepatocytes) and (g) imaging of neurite outgrowth (exclusively in neurons).
The assays were performed 24 hrs after cell collection and isolation. […] Then, absorbance at 450 nm was measured in order to analyse cell viability (WST-8). Cells were washed three times and analysed using the automatic fluorescence microscope BD Pathway 855. […] Data were analysed with AttoVision (Becton Dickinson). […] LDH release was measured in mU/L in culture media obtained from cells subjected to treatments for 24 hrs, by measuring the released LDH rate of oxidation of NADH to NAD^+ at 340 nm using Synergy 2 from BioTech.
DNA damage was evaluated by washing cells with PBS and fixation using paraformaldehyde 3% in PBS for 15 mins. […] To determine the DNA damage, intensity in the nuclei was analyzed using AttoVision software (Becton Dickinson). […]

SMILES: O=C1c2cccc3cccc(c23)C(=O)N1CCCNCCCCNCCCNCCCN1C(=O)c2cccc3cccc(c23)C1=O [Compound 9, BNIP Spermidine]
- EC50 [1]: 2.84 ± 0.18 µM
- Gastric stability [2]: 100%
- Highest plasma concentration detected ([3]; at the 5 min time-point): 1.70 µM
- Blood level after the 3 h time-point ([3]; 3 h up to 72 h, lower limit of quantification 8.1 nM, listed as BNIPSpd (9)): below the level of detection; also recorded: no longer detected
- Injury score for hepatocytes ([4]; at 50 μM): low injury (low injury (1 to <5))
- Injury score for hepatocytes ([4]; combined score of cytotoxicity panel, 24 hrs): low injury (low injury (1 to <5))
